The results in this text go back to patent US4791139A, “Diphenyl ether derivatives and their use as insecticides” (Imperial Chemical Industries PLC, priority 1986, dated 1988).

Holding throughout (assay type): in vivo
Assay [1] has as its system Tetranychus urticae (spider mites - adult). The experiment in a line: Contact test, spider mites - adult (TUa), French bean leaf. The settings on record: 72 h, 3 days, read-out: TUA grading of mortality. The method, then: (§1) The activity of the Product was determined using a variety of insect pests. The Product was used in the form of liquid preparations containing from 100 to 500 parts per million (ppm) by weight of the Product. The preparations were made by dissolving the Product in acetone and diluting the solutions with water containing 0.1% by weight of a wetting agent sold under the trade name "SYNPERONIC" NX until the liquid preparations contained the required concentration of the Product. "SYNPERONIC" is a Registered Trade Mark. The test procedure adopted with regard to each pest was basically the same and comprised supporting a number of the pests on a medium which was usually a host plant or a foodstuff on which the pests feed, and treating either or both the pests and the medium with the preparations. The mortality of the pests was then assessed at periods usually varying from one to seven days after the treatment.

Assay [2] deals with Tetranychus urticae (spider mites - ova). The experiment in a line: Contact test, spider mites - ova (TUe), French bean leaf. Conditions: 144 h, 6 days, read-out: TUE grading of mortality. On the procedure:
as §1

For a further assay, the system named is Myzus persicae (aphids). The experiment in a line: Contact test, aphids (MP), Chinese Cabbage leaf. Conditions: 72 h, 3 days, read-out: MP grading of mortality. The method, then:
as §1, with “treatment. […] In Table III the pest organism used is designated by a letter code and the pests species, the support medium or food, and the type and duration of test is given in Table II.” for “treatment.”

Assay [3] deals with Nilaparvata lugens (brown plant hopper - nymphs). The experiment in a line: Contact test, brown plant hopper - nymphs (NL), Rice plant. The settings on record: 72 h, 3 days, read-out: NL grading of mortality. On the procedure: as §1
Assay [4] deals with Musca domestica (houseflies - adults). The experiment in a line: Knockdown test, houseflies - adults (MD/KD), Cotton wool/sugar. The settings on record: 4 hours, read-out: MD/KD grading of knockdown. The method, then: (§2) The activity of the Product was determined using a variety of insect pests. The Product was used in the form of liquid preparations containing from 100 to 500 parts per million (ppm) by weight of the Product. The preparations were made by dissolving the Product in acetone and diluting the solutions with water containing 0.1% by weight of a wetting agent sold under the trade name "SYNPERONIC" NX until the liquid preparations contained the required concentration of the Product. "SYNPERONIC" is a Registered Trade Mark.
(§3) The test procedure adopted with regard to each pest was basically the same and comprised supporting a number of the pests on a medium which was usually a host plant or a foodstuff on which the pests feed, and treating either or both the pests and the medium with the preparations. The mortality of the pests was then assessed at periods usually varying from one to seven days after the treatment.
In the case of the species Musca domestica (housefly), an additional assessment to determine the knockdown effect of the compounds was performed.
(§4) In Table III the pest organism used is designated by a letter code and the pests species, the support medium or food, and the type and duration of test is given in Table II.

Assay [5] shares this test system. The experiment in a line: Contact test, houseflies - adults (MD), Cotton wool/sugar. Conditions: 24 h, 1 day, read-out: MD grading of mortality. The method, then: as §1
Assay [6] has as its system Blattella germanica (cockroach nymphs). The experiment in a line: Residual test, cockroach nymphs (BG), Plastic pot. Conditions: 72 h, 3 days, read-out: BG grading of mortality. On the procedure:
as §1

For assay [7], the system named is Heliothis virescens (tobacco budworm - larvae). The experiment in a line: Residual test, tobacco budworm - larvae (HV), Cotton leaf. The settings on record: 72 h, read-out: HV grading of mortality. On the procedure:
as §2, §3
(§5) The results of the tests are given in Table III for each of the Products, at the rate in parts per million given in the second column as a grading of mortality designated as A, B or C wherein A indicates 80-100% mortality or knockdown (70-100% for Meloidogyne incognita), B indicates 50-79% mortality knockdown or knockdown (50-69% for Meloidogyne incognita) and C indicates less than 50% mortality or knockdown.
as §4
(tobacco budworm - larvae)

Assay [8] has as its system Spodoptera exigua (lesser army worm - larvae). The experiment in a line: Residual test, lesser army worm - larvae (SP), Cotton leaf. Conditions: 72 h, 3 days, read-out: SP grading of mortality. On the procedure:
as §2, §3, §5, §4
(lesser army worm - larvae)

Assay [9] has as its system Diabrotica balteata (rootworm larvae). Put plainly: Residual test, rootworm larvae (DB), Filter paper/maize seed. The settings on record: 72 h, 3 days, read-out: DB grading of mortality. On the procedure:
as §1

The subject of assay [10] is Meloidogyne incognita (Tomato root knot eelworm - larvae). Put plainly: Residual test, Tomato root knot eelworm - larvae (MI), Semi in-vitro. The settings on record: 168 h, application rate is half that recorded, 7 days, read-out: MI grading of mortality; for mortality at 250 µg/mL: rate column 500 ppm.

The structures appear in SMILES notation.

For `Fc1ccc(C(CCCc2cccc(Oc3ccccc3)c2)C(F)(F)F)c(F)c1OC(F)(F)F` (racemic) [Compound 72, 1,1,1-Trifluoro-2-(2,4-difluoro-3-trifluoromethoxyphenyl)-5-(3-phenoxyphenyl)-pentane], the mortality (usually the percentage killed) at 500 ppm in assay [1] was 50 to 79%; in [2] it was < 50%; with Myzus persicae (aphids) it was 80 to 100%; in [3], 50 to 79%; in [5], < 50%; in [6] it was 80 to 100%. In addition, the mortality at 500 ppm in [7], in assay [8] and in assay [9] was 80 to 100% each time. Also, in assay [4], the pest or weed control at 500 ppm is < 50%. In addition, the mortality at 250 µg/mL in [10] was < 50%.
As for `OC(CCCc1cccc(Oc2ccccc2)c1)(c1ccc(OC(F)(F)F)cc1)C(F)(F)F` (racemic) [Compound 59, 1,1,1-trifluoro-2-hydroxy-2-(4-trifluoromethoxyphenyl)-5-(3-phenoxyphenyl)pentane], the mortality at 500 ppm is 80 to 100% in assay [1]; < 50% in assay [2]; < 50% in the assay with Myzus persicae (aphids); 80 to 100% in [3]; < 50% in assay [5]; < 50% in assay [6]. Besides, the mortality at 500 ppm in assay [7] is < 50%; in assay [8], < 50%; in [9], 80 to 100%. Also, the pest or weed control at 500 ppm in assay [4] is < 50%. Further, the mortality at 250 µg/mL in [10] is < 50%.
Regarding `CCOc1ccc(C(CCC(C#N)c2cccc(Oc3ccccc3)c2)C(F)(F)F)cc1` (racemic) [Compound 54, 1,1,1-Trifluoro-2-(4-ethoxyphenyl)-5-cyano-5-(3-phenoxyphenyl)pentane], the mortality at 500 ppm is < 50% in assay [1]; < 50% in assay [2]; 80 to 100% with Myzus persicae (aphids); 80 to 100% in assay [3]; 80 to 100% in assay [5]; < 50% in [6]. In addition, the mortality at 500 ppm is 80 to 100% in assay [7], 80 to 100% in assay [8] and < 50% in [9]. Besides, the pest or weed control at 500 ppm in [4] is 80 to 100%. Moreover, in [10], the mortality at 250 µg/mL was < 50%.
`Fc1ccc(C(=CCCc2cccc(Oc3ccccc3)c2)C(F)(F)F)cc1` [Compound 47, 1,1,1-Trifluoro-2-(4-fluorophenyl)-5-(3-phenoxyphenyl)pent-2-ene]: the mortality at 250 ppm is < 50% in assay [1] (250 ppm); < 50% in assay [2] (250 ppm); < 50% in the assay with Myzus persicae (aphids) (250 ppm); < 50% in assay [3] (250 ppm); < 50% in assay [5] (250 ppm); 50 to 79% in [6] (250 ppm). The mortality at 250 ppm in assay [7] was < 50%; in [8] (250 ppm), 50 to 79%; in [9] (250 ppm) it was 50 to 79%. Further, in assay [4] (250 ppm), the pest or weed control at 250 ppm is < 50%. Moreover, in [10] (rate 250 ppm), the mortality at 125 µg/mL was 50 to 69%.
As for `FC(F)(F)Oc1ccc(C(=CC=Cc2cccc(Oc3ccccc3)c2)C(F)(F)Cl)cc1` [Compound 70, 1,1-Difluoro-1-chloro-2-(4-trifluoromethoxyphenyl)-5-(3-phenoxyphenyl)penta-2,4-diene], the mortality at 500 ppm (in assay [1]; in assay [2]; in the assay with Myzus persicae (aphids); in assay [3]; in assay [5]; in [6]) was < 50% in each case. Besides, the mortality at 500 ppm in [7], in assay [8] and in assay [9] was < 50% in each case. The pest or weed control at 500 ppm in [4] is < 50%. For the same compound, the mortality at 250 µg/mL in [10] lay in the range of 50 to 69%.
`Fc1cc(C(=CC=Cc2cccc(Oc3ccccc3)c2)C(F)(F)F)cc(F)c1OC(F)(F)F` [Compound 75, 1,1,1-Trifluoro-2-(3,5-difluoro-4-trifluoromethoxyphenyl)-5-(3-phenoxyphenyl)penta-2,4-diene]: the mortality at 500 ppm (in [1]; in [2]; in the assay with Myzus persicae (aphids); in [3]; in assay [5]; in [6]) was < 50% in each case. In addition, the mortality at 500 ppm in assay [7], in assay [8] and in assay [9] was < 50% each time. In assay [4], the pest or weed control at 500 ppm is < 50%. Moreover, the mortality at 250 µg/mL in [10] was < 50%.
For `CCOc1c(F)cc(C(=CC=Cc2ccc(F)c(Oc3ccccc3)c2)C(F)(F)F)cc1F` [Compound 67, 1,1,1-Trifluoro-2-(3,5-difluoro-4-ethoxyphenyl)-5-(4-fluoro-3-phenoxyphenyl)penta-2,4-diene], the mortality at 500 ppm in assay [1] is < 50%; in assay [2] it was < 50%; in the assay on Myzus persicae (aphids), 80 to 100%; in assay [3], 80 to 100%; in assay [5], < 50%; in [6], < 50%. Further, the mortality at 500 ppm in [7], in [8] and in [9] was 80 to 100% throughout. Besides, in assay [4], the pest or weed control at 500 ppm was < 50%. Also, the mortality at 250 µg/mL in [10] is < 50%.
In the case of `COCc1ccc(C(=CCCc2cccc(Oc3ccccc3)c2)C(F)(F)F)cc1` [Compound 44, 1,1,1-Trifluoro-2-(4-methoxymethylphenyl)-5-(3-phenoxyphenyl)-pent-2-ene], the mortality at 500 ppm in assay [1] was 80 to 100%; in assay [2], < 50%; with Myzus persicae (aphids), < 50%; in assay [3], < 50%; in assay [5] it was < 50%; in assay [6], < 50%. The results for the mortality at 500 ppm in assay [7], in assay [8] and in assay [9] were < 50%, 50 to 79% and < 50%, respectively. Also, the pest or weed control at 500 ppm in [4] was < 50%. Also, in assay [10], the mortality at 250 µg/mL was < 50%.
